Assays:
Experiment in all cases: relative viability (nuclei count vs DMSO), 5 days (fraction); higher = more cells survive
[1] = tested on: 201T
Procedure, shortened: (§1)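 Five library-drug doses in √10 steps were combined with a fixed anchor-drug dose, or a single drug was given alone, by pin tool to lung cancer cell lines in 1536-well plates the day after seeding. Nuclei were stained and counted after 5 days. Relative viability is the nuclei count in treated wells over that in vehicle wells, taken as the median of duplicate plates.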

[2] = tested on: NCI-H647
Procedure, shortened: as §1

[3] = tested on: HCC-15
Procedure, shortened: as §1

[4] = tested on: COR-L 105
Procedure, shortened: as §1

[5] = tested on: NCI-H1651
Procedure, shortened: as §1

[6] = tested on: EKVX
Procedure, shortened: as §1

[7] = tested on: NCI-H661
Procedure, shortened: as §1

[8] = tested on: H3255
Procedure, shortened: as §1

[9] = tested on: ABC-1
Procedure, shortened: as §1

[10] = tested on: COR-L23
Procedure, shortened: as §1

[11] = tested on: NCI-H1650
Procedure, shortened: as §1

[12] = tested on: NCI-H1437
Procedure, shortened: as §1

[13] = tested on: LCLC-103H
Procedure, shortened: as §1

[14] = tested on: HCC-44
Procedure, shortened: as §1

[15] = tested on: NCI-H2087
Procedure, shortened: as §1

[16] = tested on: HCC-827
Procedure, shortened: as §1

[17] = tested on: NCI-H520
Procedure, shortened: as §1

[18] = tested on: NCI-H727
Procedure, shortened: as §1

[19] = tested on: EPLC-272H
Procedure, shortened: as §1

[20] = tested on: NCI-H1975
Procedure, shortened: as §1

[21] = tested on: NCI-H358
Procedure, shortened: as §1

[22] = tested on: UMC-11
Procedure, shortened: as §1

`Cc1cnc(-c2cnc(NCCNc3ccc(C#N)cn3)nc2-c2ccc(Cl)cc2Cl)[nH]1` + Cc1cc(Nc2cc(N3CCN(C)CC3)nc(Sc3ccc(NC(=O)C4CC4)cc3)n2)n[nH]1 [Tozasertib] (partner 0.1 µM) was tested, and the relative viability ([1]; first compound 0.08 µM) was 0.93, the relative viability ([1]; first compound 0.8 µM) was 0.904 and the relative viability ([1]; first compound 2.53 µM) was 0.884. The relative viability ([2]; first compound 0.08 µM) was 0.306, the relative viability ([2]; first compound 0.253 µM) was 0.163 and the relative viability ([2]; first compound 0.8 µM) was 0.263. For the same compound, the relative viability ([2]; first compound 2.53 µM) was 0.172, the relative viability ([3]; first compound 0.08 µM) was 0.346 and the relative viability ([3]; first compound 0.253 µM) was 0.373. For the same compound, the relative viability ([3]; first compound 0.8 µM) was 0.473, the relative viability ([3]; first compound 2.53 µM) was 0.279 and the relative viability ([4]; first compound 0.08 µM) was 0.349. It also gave a relative viability ([4]; first compound 0.253 µM) of 0.327, a relative viability ([4]; first compound 0.8 µM) of 0.346 and a relative viability ([4]; first compound 2.53 µM) of 0.298. The relative viability ([5]; first compound 0.08 µM) was 0.7, the relative viability ([5]; first compound 0.253 µM) was 0.648 and the relative viability ([5]; first compound 0.8 µM) was 0.682. The relative viability ([5]; first compound 2.53 µM) was 0.565, the relative viability ([6]; first compound 0.08 µM) was 0.408 and the relative viability ([6]; first compound 0.253 µM) was 0.357. The relative viability ([6]; first compound 0.8 µM) was 0.347, the relative viability ([6]; first compound 2.53 µM) was 0.335 and the relative viability ([7]; first compound 0.08 µM) was 0.361. The relative viability ([7]; first compound 0.253 µM) was 0.378, the relative viability ([7]; first compound 0.8 µM) was 0.363 and the relative viability ([7]; first compound 2.53 µM) was 0.341. For the same compound, the relative viability ([8]; first compound 0.08 µM) was 0.951, the relative viability ([8]; first compound 0.253 µM) was 0.511 and the relative viability ([8]; first compound 0.8 µM) was 0.593. For the same compound, the relative viability ([8]; first compound 2.53 µM) was 0.65, the relative viability ([9]; first compound 0.08 µM) was 0.213 and the relative viability ([9]; first compound 0.253 µM) was 0.158. It also gave a relative viability ([9]; first compound 0.8 µM) of 0.22, a relative viability ([9]; first compound 2.53 µM) of 0.221 and a relative viability ([10]; first compound 0.08 µM) of 0.205. The relative viability ([10]; first compound 0.253 µM) was 0.181, the relative viability ([10]; first compound 0.8 µM) was 0.164 and the relative viability ([10]; first compound 2.53 µM) was 0.109. For the same compound, the relative viability ([11]; first compound 0.08 µM) was 0.476, the relative viability ([11]; first compound 0.253 µM) was 0.43 and the relative viability ([11]; first compound 0.8 µM) was 0.353. For the same compound, the relative viability ([11]; first compound 2.53 µM) was 0.229, the relative viability ([12]; first compound 0.08 µM) was 0.456 and the relative viability ([12]; first compound 0.253 µM) was 0.444. The relative viability ([12]; first compound 0.8 µM) was 0.431, the relative viability ([12]; first compound 2.53 µM) was 0.371 and the relative viability ([13]; first compound 0.08 µM) was 0.503. The relative viability ([13]; first compound 0.253 µM) was 0.417, the relative viability ([13]; first compound 0.8 µM) was 0.429 and the relative viability ([13]; first compound 2.53 µM) was 0.426. For the same compound, the relative viability ([14]; first compound 0.08 µM) was 1.04, the relative viability ([14]; first compound 0.253 µM) was 0.746 and the relative viability ([14]; first compound 0.8 µM) was 0.676. The relative viability ([14]; first compound 2.53 µM) was 0.781, the relative viability ([15]; first compound 0.08 µM) was 0.249 and the relative viability ([15]; first compound 0.253 µM) was 0.203. For the same compound, the relative viability ([15]; first compound 0.8 µM) was 0.211, the relative viability ([15]; first compound 2.53 µM) was 0.128 and the relative viability ([16]; first compound 0.08 µM) was 0.432. For the same compound, the relative viability ([16]; first compound 0.8 µM) was 0.44, the relative viability ([16]; first compound 2.53 µM) was 0.407 and the relative viability ([17]; first compound 0.08 µM) was 0.517. It also gave a relative viability ([17]; first compound 0.253 µM) of 0.444, a relative viability ([17]; first compound 0.8 µM) of 0.397 and a relative viability ([17]; first compound 2.53 µM) of 0.499. The relative viability ([18]; first compound 0.08 µM) was 0.639, the relative viability ([18]; first compound 0.253 µM) was 0.497 and the relative viability ([18]; first compound 0.8 µM) was 0.603. The relative viability ([18]; first compound 2.53 µM) was 0.422, the relative viability ([19]; first compound 0.08 µM) was 0.321 and the relative viability ([19]; first compound 0.253 µM) was 0.255. It also gave a relative viability ([19]; first compound 0.8 µM) of 0.249, a relative viability ([19]; first compound 2.53 µM) of 0.197 and a relative viability ([20]; first compound 0.08 µM) of 0.717. It also gave a relative viability ([20]; first compound 0.253 µM) of 0.659, a relative viability ([20]; first compound 0.8 µM) of 0.508 and a relative viability ([20]; first compound 2.53 µM) of 0.132. For the same compound, the relative viability ([21]; first compound 0.08 µM) was 0.101, the relative viability ([21]; first compound 0.253 µM) was 0.0983 and the relative viability ([21]; first compound 0.8 µM) was 0.137. It also gave a relative viability ([21]; first compound 2.53 µM) of 0.11, a relative viability ([22]; first compound 0.08 µM) of 0.19 and a relative viability ([22]; first compound 0.253 µM) of 0.191. For the same compound, the relative viability ([22]; first compound 0.8 µM) was 0.227 and the relative viability ([22]; first compound 2.53 µM) was 0.213.

Work on `Cc1cnc(-c2cnc(NCCNc3ccc(C#N)cn3)nc2-c2ccc(Cl)cc2Cl)[nH]1` + O=C(CCCCCCC(=O)Nc1ccccc1)NO [Vorinostat] (partner 1 µM) yielded a relative viability ([1]; first compound 0.08 µM) of 1.01, a relative viability ([1]; first compound 0.8 µM) of 0.977 and a relative viability ([1]; first compound 2.53 µM) of 0.912. It also gave a relative viability ([2]; first compound 0.08 µM) of 0.609, a relative viability ([2]; first compound 0.253 µM) of 0.399 and a relative viability ([2]; first compound 0.8 µM) of 0.743. For the same compound, the relative viability ([2]; first compound 2.53 µM) was 0.357, the relative viability ([3]; first compound 0.08 µM) was 0.832 and the relative viability ([3]; first compound 0.253 µM) was 0.818. For the same compound, the relative viability ([3]; first compound 0.8 µM) was 0.817, the relative viability ([3]; first compound 2.53 µM) was 0.829 and the relative viability ([4]; first compound 0.08 µM) was 0.942. The relative viability ([4]; first compound 0.253 µM) was 0.77, the relative viability ([4]; first compound 0.8 µM) was 0.596 and the relative viability ([4]; first compound 2.53 µM) was 0.663. It also gave a relative viability ([5]; first compound 0.08 µM) of 0.539, a relative viability ([5]; first compound 0.253 µM) of 0.459 and a relative viability ([5]; first compound 0.8 µM) of 0.537. It also gave a relative viability ([5]; first compound 2.53 µM) of 0.58, a relative viability ([6]; first compound 0.08 µM) of 0.789 and a relative viability ([6]; first compound 0.253 µM) of 0.529. The relative viability ([6]; first compound 0.8 µM) was 0.658, the relative viability ([6]; first compound 2.53 µM) was 0.745 and the relative viability ([7]; first compound 0.08 µM) was 0.906. For the same compound, the relative viability ([7]; first compound 0.253 µM) was 0.774, the relative viability ([7]; first compound 0.8 µM) was 0.782 and the relative viability ([7]; first compound 2.53 µM) was 0.731. The relative viability ([8]; first compound 0.08 µM) was 0.599, the relative viability ([8]; first compound 0.253 µM) was 0.717 and the relative viability ([8]; first compound 0.8 µM) was 0.754. The relative viability ([8]; first compound 2.53 µM) was 0.829, the relative viability ([9]; first compound 0.08 µM) was 1.24 and the relative viability ([9]; first compound 0.253 µM) was 0.871. For the same compound, the relative viability ([9]; first compound 0.8 µM) was 1.06, the relative viability ([9]; first compound 2.53 µM) was 1.15 and the relative viability ([10]; first compound 0.08 µM) was 0.556. It also gave a relative viability ([10]; first compound 0.253 µM) of 0.42, a relative viability ([10]; first compound 0.8 µM) of 0.508 and a relative viability ([10]; first compound 2.53 µM) of 0.505. The relative viability ([11]; first compound 0.08 µM) was 0.564, the relative viability ([11]; first compound 0.253 µM) was 0.508 and the relative viability ([11]; first compound 0.8 µM) was 0.546. For the same compound, the relative viability ([11]; first compound 2.53 µM) was 0.661, the relative viability ([12]; first compound 0.08 µM) was 0.829 and the relative viability ([12]; first compound 0.253 µM) was 0.774. The relative viability ([12]; first compound 0.8 µM) was 0.828, the relative viability ([12]; first compound 2.53 µM) was 0.853 and the relative viability ([13]; first compound 0.08 µM) was 0.728. It also gave a relative viability ([13]; first compound 0.253 µM) of 0.541, a relative viability ([13]; first compound 0.8 µM) of 0.689 and a relative viability ([13]; first compound 2.53 µM) of 0.698. The relative viability ([14]; first compound 0.08 µM) was 1.05, the relative viability ([14]; first compound 0.253 µM) was 1.16 and the relative viability ([14]; first compound 0.8 µM) was 1.03. The relative viability ([14]; first compound 2.53 µM) was 1.24, the relative viability ([15]; first compound 0.08 µM) was 0.871 and the relative viability ([15]; first compound 0.8 µM) was 0.514. It also gave a relative viability ([15]; first compound 2.53 µM) of 0.663, a relative viability ([16]; first compound 0.08 µM) of 0.85 and a relative viability ([16]; first compound 0.253 µM) of 0.306. It also gave a relative viability ([16]; first compound 0.8 µM) of 0.827, a relative viability ([16]; first compound 2.53 µM) of 0.871 and a relative viability ([17]; first compound 0.08 µM) of 0.814. The relative viability ([17]; first compound 0.253 µM) was 0.678, the relative viability ([17]; first compound 0.8 µM) was 0.725 and the relative viability ([17]; first compound 2.53 µM) was 0.772. The relative viability ([18]; first compound 0.08 µM) was 1.18, the relative viability ([18]; first compound 0.253 µM) was 0.787 and the relative viability ([18]; first compound 0.8 µM) was 1.02. It also gave a relative viability ([18]; first compound 2.53 µM) of 1.23, a relative viability ([19]; first compound 0.08 µM) of 0.658 and a relative viability ([19]; first compound 0.8 µM) of 0.531. It also gave a relative viability ([19]; first compound 2.53 µM) of 0.581, a relative viability ([20]; first compound 0.08 µM) of 0.783 and a relative viability ([20]; first compound 0.253 µM) of 0.699. For the same compound, the relative viability ([20]; first compound 0.8 µM) was 0.732, the relative viability ([20]; first compound 2.53 µM) was 0.614 and the relative viability ([21]; first compound 0.08 µM) was 0.787. The relative viability ([21]; first compound 0.253 µM) was 0.686, the relative viability ([21]; first compound 0.8 µM) was 0.69 and the relative viability ([21]; first compound 2.53 µM) was 0.585. For the same compound, the relative viability ([22]; first compound 0.08 µM) was 0.403, the relative viability ([22]; first compound 0.253 µM) was 0.387 and the relative viability ([22]; first compound 0.8 µM) was 0.411. The relative viability ([22]; first compound 2.53 µM) was 0.511.

— the supplement of paper PMC10307832
